In US20250092086A1, “CELASTROL SALTS, CRYSTALLINE FORMS, AND USES THEREOF” (ERX Pharmaceuticals Inc., priority 2022, published 2025):
Values after ≈ are worked out from the molar mass of the structure shown. “Also recorded” adds a separate entry of the source.

What was measured:
Format in all cases: physicochemical
[1] = Hygroscopicity (DVS), water sorption/desorption at 37° C.; conditions: for DVS (hygroscopicity): water sorption/desorption isotherms at 37° C., 0-95% RH
Procedure: The hygroscopicity experiments were carried out with a DVS Intrinsic from S.M.S. This technique is designed to accurately measure a sample's change in mass as it sorbs precisely controlled concentrations of water vapors in an air carrier gas. The method used for DVS experiments (at 37° C.) is summarized below. • Equilibrating 10 min at 50% RH • Decreasing to 0% RH in 60 min • Equilibrating 10 min at 0% RH • Increasing to 95% RH in 280 min • Equilibrating 10 min at 95% RH • Decreasing to 50% RH in 100 min • Equilibrating 20 min at 50% RH
(§1) The hygroscopic experiments were carried out with a DVS Intrinsic from S.M.S. This technique is designed to accurately measure a sample's change in mass as it sorbs precisely controlled concentrations of water vapors in an air carrier gas. All the methods used for DVS experiments are summarized below. It should be noticed that the temperature and relative humidity (RH) are pre-set according to the initial temperature and RH.
• Equilibrating 120 min at 50% RH • Decreasing to 0% RH in 60 min • Equilibrating 150 min at 0% RH • Increasing to 95% RH in 200 min • Equilibrating 360 min at 95% RH • Decreasing to 50% RH in 100 min • Equilibrating 150 min at 50% RH
as §1, with “hygroscopicity” for “hygroscopic”, “below, and it” for “below. It”
as §1, with “hygroscopicity” for “hygroscopic”

[2] = Polymorph screening, cooling experiments (solubility of Form III in screening solvents); conditions: all solvents tested with the exception of dichloromethane, even at high temperature
Procedure: Solutions of Compound 1 Form III were prepared at respectively 50 and 150 g/L in each solvent. Heat was applied when necessary to get a solution. Once a solution was obtained, the vials were cooled down to 10° C.

[3] = Solubility profile of Compound 1 Form III in water, ethanol and methanol; conditions: for solubility: thermodynamic from solid
Procedure: The solubility of Compound 1 Form III was measured in the following solvents: water, ethanol and methanol. The determination of the solubility profile was performed with a Thermomixer Eppendorf driving the temperature and the mixing. The stock solutions were prepared according to the USP (United States Pharmacopeia), and then about 1 mL of these stock solutions was added to the API in tubes of 2 mL.

[4] = XRPD under temperature and relative humidity; conditions: for XRPD under temperature: impact / new crystalline phase: 25 to 100° C., RH set at 30%; for XRPD under relative humidity: impact / new crystalline phase: RH 10 to 80-90% at 40° C.
Procedure: Method 1: influence of temperature at ambient RH. RH was set at 30% in order to simulate a RH near from the ambient RH, and the temperature studied were 25-[…]-100° C.
Method 2: influence on RH at 40° C. The RH studied was at 10-30-80%.
These experiments studied the influence of temperature at ambient RH. RH was wet at 30% in order to simulate a RH near from the ambient RH, and the temperatures studied were 25-50-100° C.
These experiments studied the influence on RH at 40° C. The RH studied were 10-30-88%.
Using Method 1, the influence of temperature at ambient RH was studied. RH was set at 30% in order to simulate a RH near from the ambient RH, and the temperatures studied were 25-50-100° C. FIG. 24 provides the XRPD pattern representing the influence of temperature on Compound 1 Form I.
Using Method 2, the influence on RH at 40° C. was studied. The RH studied were 10-30-90%.
Using Method 1, the influence of temperature at ambient RH was studied. RH was set at 30% in order to simulate a RH near from the ambient RH. Temperature studied: 25-50-100° C.
Using Method 2, the influence on RH at 40° C. was studied at 10-30-90%.

[5] = pH solubility profile at 37° C. of Compound 1 Form III
Procedure: All the buffer solutions were prepared according to the U.S.P namely hydrochloric acid buffer for pH=2.0, acid phthalate buffer for pH=4.0, phosphate buffer for pH=6.0, alkaline borate buffer for pH=8.0, which correspond to the native pH. At the end of the solubility study, the pH of the solutions were controlled again (final pH) to determine any variation. The solubility was measured at 37° C. The maximum concentration limit was set at 100 g/L max to minimize consumption of the tested compound.

## CC1=C(O)C(=O)C=C2C1=CC=C1[C@@]2(C)CC[C@@]2(C)[C@@H]3C[C@](C)(C(=O)O)CC[C@]3(C)CC[C@]12C [Compound 1 Form III, 3-hydroxy-9β,13α-dimethyl-2-oxo-24,25,26-trinoroleana-1(10),3,5,7-tetraen-29-oic acid]
[1]; DVS, 37° C.
  Hysteresis observed with the final mass at 50% RH: No hysteresis
  Mass decrease as RH was lowered to 0%: ~0.06%
  Mass increase as RH was increased to 95%: ~0.09%
  Water uptake, water sorption/desorption isotherms: < 0.2%
[1]
  DVS (hygroscopicity): non-hygroscopic
[1]; listed as FIII
  DVS (hygroscopicity): Not hygroscopic
[1]; listed as Form III
  DVS (hygroscopicity): nonhygroscopicity; also recorded: Non hygroscopic compound
[2]
  Solubility in the screening solvents: low solubility
[3]; 30 °C, water, 10, 30 and 50° C.
  solubility: < 1 mg/mL
[3]; ethanol
  Solubility profile: ethanol (description): Ethanol: Soluble
[3]; methanol
  Solubility profile: methanol (description): Methanol: Sparingly Soluble
[3]; organic solvent or mixture, ethanol, 10° C.
  solubility: 33 to 38 mg/mL (≈ 73.2 to 84.3 mM)
[3]; organic solvent or mixture, ethanol, 30° C.
  solubility: 33 to 38 mg/mL (≈ 73.2 to 84.3 mM)
[3]; organic solvent or mixture, ethanol, 50° C.
  solubility: 33 to 38 mg/mL (≈ 73.2 to 84.3 mM)
[3]; organic solvent or mixture, methanol, 10° C.
  solubility: 27 to 33 mg/mL (≈ 59.9 to 73.2 mM)
[3]; organic solvent or mixture, methanol, 30° C.
  solubility: 27 to 33 mg/mL (≈ 59.9 to 73.2 mM)
[3]; organic solvent or mixture, methanol, 50° C.
  solubility: 27 to 33 mg/mL (≈ 59.9 to 73.2 mM)
[3]; water
  Solubility profile: water (description): Water: Very slightly soluble
[4]
  XRPD under temperature: impact / new crystalline phase: stable
  XRPD under relative humidity: impact / new crystalline phase: stable
[4]; listed as FIII
  XRPD under temperature: impact / new crystalline phase: =>No new crystalline
  XRPD under relative humidity: impact / new crystalline phase: =>No new crystalline
[5]; USP buffer solutions, aqueous buffer, thermodynamic from solid, USP buffers, native pH 2.0, 4.0, 6.0 and 8.0, read-out: Solubility range
  solubility: < 1000 µg/mL
[5]; pH 2.0 to 8.0
  pH solubility profile, description form: very slight solubility; also recorded: Very slightly
[5]; pH 2.0 to 8.0, listed as Form III
  pH solubility profile, description form: From pH = 2 to pH = 8: very slightly soluble
